According to paper PMC8750527 (Cancers, 2021):

Key:
[1] = LC/MS measurement of axitinib in rat cerebellum; type: in vivo; settings: after 28 days of 50 mg/kg/day oral gavage
Source text: The experiments were approved by Comité National Institutionnel d’Ethique pour l’Animal de Laboratoire (France). The rats were bled and the brains were recovered and flash-frozen at the end of the experiment.

[2] = system: MB cells (DAOY, HD-MB03, D283, D458, CHLA-01-MED spheroids); experiment: Spheroid assay, five MB cell lines; type: cell-based, human; settings: 5 µM, continuous treatment
Description: (§1) Two thousand cells were seeded in ultralow-adhesion 96-well plates (Corning Inc., Corning, NY, USA). […] Pictures were taken with an AMG Evos microscope 40× objective (Thermo Fisher Scientific Inc, Waltham, MA, USA) and the spheroid areas were measured using the ImageJ software (NIH, Bethesda, MD, USA).

[3] = system: HDF; experiment: Cumulative population doubling (CPD), HDF; type: cell-based, human; settings: transient treatment for 48 h, 5 µM
Description: (§2) Cumulative population doubling (CPD) was assessed as previously described. Briefly, depending on the cell line, a variable number of cells corresponding to about 30% confluency were seeded in triplicate in 60 mm diameter Petri dishes. […] The cells were harvested when the confluency reached about 90%, counted and plated again at a dilution of 1/20. CPD was calculated as previously described.

[4] = system: normal cells (C8-D1A, HDF); experiment: Proliferation index assay, normal cells; settings: 120 h; axitinib 5 µM, etoposide 1 µM
[5] = system: children presenting with refractory or recurrent tumors; settings: phase I study ref 20; cited from earlier work
[6] = system: DAOY; experiment: Cumulative population doubling (CPD), DAOY; type: cell-based, human; settings: continuous treatment; axitinib 5 µM, etoposide 1 µM
Description: as §2

[7] = system: C8-D1A/HD-MB03 mixed spheroids; experiment: 3D mixed spheroids of astrocytes and MB cells; type: cell-based; settings: 7 days; axitinib 5 µM or etoposide 1 µM
Description: C8-D1A cells were stained with the green fluorescent probe neuro-DiO (cat. number 60015, Biotium, Fremont, CA, USA) according to the manufacturer’s protocol. C8-D1A-neuroDio cells (150,000) and HD-MB03-mCherry or DAOY-mCherry cells (50,000) were plated in 12-well plates. […] Fluorescence images of the cells were taken with a DMI400 inverted microscope (Leica Microsystemes SAS, Nanterre, France) equipped with a 40× objective and a Zyla 5.5 camera (Andor Technologies, Belfast, UK). The cells were then trypsinized and the number of both cell types was quantified using a Melody FACS (BD Biosciences, Frankton Lake, NJ, USA) with a 488 nm laser beam. Analysis of the FACS data was conducted with the Flowjo software (Tree Star Inc., Ashland, OR, USA).
as §1

[8] = system: human brain endothelial cells (BEC, hCMEC/D3); experiment: MTT assay, brain endothelial cells; type: cell-based; settings: after three days, 1, 5 and 25 µM tested
[9] = system: group 3 (D283, D458 and HD-MB03) and putative Shh group (DAOY) MB cell lines; experiment: MTT assay, mean IC50 over group 3 and Shh MB cell lines; type: cell-based; settings: Homo sapiens
Description: HDF (3000 cells), C8-D1A (5000 cells), D458 (5000 cells), DAOY (2000 cells), HD-MB03 (10,000 cells) and CHLA-01-Med (10,000 cells) were seeded at an approximate confluency of 50% in 96-well plates (Corning Inc., Corning, NY, USA) in 100 µL medium per well. A range from 50 nM to 150 µM of every drug was tested. The effects of the antiangiogenic compounds were measured using a 3-[4,5-dimethylthiazol-2yl]-diphenyltetrazolium bromide (MTT) colorimetric assay (Sigma, Lyon, France) according to the manufacturer’s instructions. When applicable, IC50 was calculated using the nonlinear regression method of the Prism 5 software (Graphpad Software Inc., San Diego, CA, USA). […] An MTT assay was conducted as described above to assess the fitness of the cells.

[10] = system: MB cells; experiment: Cell viability, propidium iodine incorporation, MB cells; type: cell-based, human; settings: 48 h, 5 µM
Description: Cell viability assays were conducted using a propidium iodine incorporation technique with an ADAM-sHIT automated cell counter (NanoEnTek, Gyeonggi-do, Korea) according to the manufacturer’s protocol.

CNC(=O)c1ccccc1Sc1ccc2c(/C=C/c3ccccn3)n[nH]c2c1 [Axitinib, axitinib]
axitinib content of cerebella (LC/MS) [1]: present in the cerebellum | 3D growth of MB cell spheroids [2]: abolished 3D growth | proliferation (CPD) of HDF normal cells after removal of the drug [3]: able to proliferate again | proliferation of normal cells [4]: impaired in these conditions, although to a lower extent | maximum tolerated and recommended dose in children [5]: 2.4 mg/m^2 | long-term proliferation (CPD) of DAOY cells [6]: strongly impaired their proliferation | size of mixed spheroids [7]: strong decrease in the size of spheroids | doses displaying toxicity in brain endothelial cells [8]: higher than 1 µM | IC50 [9]: 1.1 ± 0.9 µM | viability of MB cells [10]: decreased the viability of most MB cells
